{"source": "ChEMBL document CHEMBL1201862", "about": "“PubChem BioAssay data set” (2004)", "experiment_in_all_cases": "NCI tumour cell line growth inhibition, 48 h", "key": {"[1]": {"test_system": "786-0"}, "[2]": {"test_system": "A498"}, "[3]": {"test_system": "A549"}, "[4]": {"test_system": "ACHN"}, "[5]": {"test_system": "CAKI-1"}, "[6]": {"test_system": "CCRF-CEM"}, "[7]": {"test_system": "COLO 205"}, "[8]": {"test_system": "DLD-1"}, "[9]": {"test_system": "DMS-114"}, "[10]": {"test_system": "HCC 2998"}, "[11]": {"test_system": "HCT-116"}, "[12]": {"test_system": "HCT-15"}, "[13]": {"test_system": "HL-60"}, "[14]": {"test_system": "HOP-18"}, "[15]": {"test_system": "HOP-62"}, "[16]": {"test_system": "HOP-92"}, "[17]": {"test_system": "HT-29"}, "[18]": {"test_system": "K562"}, "[19]": {"test_system": "KM-20L2"}, "[20]": {"test_system": "KM12"}, "[21]": {"test_system": "LOX IMVI"}, "[22]": {"test_system": "LXFL 529"}, "[23]": {"test_system": "M14"}, "[24]": {"test_system": "M19-MEL"}, "[25]": {"test_system": "MOLT-4"}, "[26]": {"test_system": "Malme-3M"}, "[27]": {"test_system": "NCI-H23"}, "[28]": {"test_system": "NCI-H460"}, "[29]": {"test_system": "OVCAR-5"}, "[30]": {"test_system": "OVCAR-8"}, "[31]": {"test_system": "RXF 631"}, "[32]": {"test_system": "SF-268"}, "[33]": {"test_system": "SF-295"}, "[34]": {"test_system": "SF-539"}, "[35]": {"test_system": "SK-MEL-28"}, "[36]": {"test_system": "SK-MEL-2"}, "[37]": {"test_system": "SN12C"}, "[38]": {"test_system": "SNB-19"}, "[39]": {"test_system": "SNB-75"}, "[40]": {"test_system": "SNB-78"}, "[41]": {"test_system": "SR"}, "[42]": {"test_system": "SW-620"}, "[43]": {"test_system": "TK-10"}, "[44]": {"test_system": "U-251"}, "[45]": {"test_system": "UACC-257"}, "[46]": {"test_system": "UO-31"}, "[47]": {"test_system": "XF498"}, "[48]": {"test_system": "DMS-273"}, "[49]": {"test_system": "EKVX"}, "[50]": {"test_system": "IGROV-1"}, "[51]": {"test_system": "NCI-H226"}, "[52]": {"test_system": "NCI-H522"}, "[53]": {"test_system": "OVCAR-3"}, "[54]": {"test_system": "OVCAR-4"}, "[55]": {"test_system": "RPMI-8226"}, "[56]": {"test_system": "RXF 393"}, "[57]": {"test_system": "SK-MEL-5"}, "[58]": {"test_system": "SK-OV-3"}, "[59]": {"test_system": "UACC-62"}}, "note": "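Values below derive from 48-hour exposures of cells grown in 96-well plates, with endpoints linearly interpolated between the two concentrations bracketing the appropriate inhibition level. GI50: concentration for 50% inhibition of growth.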 Active and inactive are the calls of the source. Rule as the data show it: active = GI50 up to about 1.1 µM and inactive = higher.", "data": [{"molecule": "O=C1C2C3C=C4c5ccccc5N(c5ccccc5)C4(C2C(=O)N1Cc1ccccc1)C1C(=O)N(Cc2ccccc2)C(=O)C31", "note": "(centres undefined)", "values": [{"measurement": "GI50", "setting": "[1]", "value": "> 100 µM (inactive)"}, {"measurement": "GI50", "setting": "[2]", "value": "> 100 µM (inactive)"}, {"measurement": "GI50", "setting": "[3]", "value": "> 100 µM (inactive)"}, {"measurement": "GI50", "setting": "[4]", "value": "> 100 µM (inactive)"}, {"measurement": "GI50", "setting": "[5]", "value": "> 10 µM (inactive)"}, {"measurement": "GI50", "setting": "[6]", "value": "> 100 µM (inactive)"}, {"measurement": "GI50", "setting": "[7]", "value": "> 100 µM (inactive)"}, {"measurement": "GI50", "setting": "[8]", "value": "> 100 µM (inactive)"}, {"measurement": "GI50", "setting": "[9]", "value": "> 100 µM (inactive)"}, {"measurement": "GI50", "setting": "[10]", "value": "> 100 µM (inactive)"}, {"measurement": "GI50", "setting": "[11]", "value": "> 100 µM (inactive)"}, {"measurement": "GI50", "setting": "[12]", "value": "> 100", "unit": "µM"}, {"measurement": "GI50", "setting": "[13]", "value": "> 100 µM (inactive)"}, {"measurement": "GI50", "setting": "[14]", "value": "> 100 µM (inactive)"}, {"measurement": "GI50", "setting": "[15]", "value": "> 10 µM (inactive)"}, {"measurement": "GI50", "setting": "[16]", "value": "39.5 µM (inactive)"}, {"measurement": "GI50", "setting": "[17]", "value": "> 100 µM (inactive)"}, {"measurement": "GI50", "setting": "[18]", "value": "> 100 µM (inactive)"}, {"measurement": "GI50", "setting": "[19]", "value": "> 100 µM (inactive)"}, {"measurement": "GI50", "setting": "[20]", "value": "> 100 µM (inactive)"}, {"measurement": "GI50", "setting": "[21]", "value": "78.9 µM (inactive)"}, {"measurement": "GI50", "setting": "[22]", "value": "> 100 µM (inactive)"}, {"measurement": "GI50", "setting": "[23]", "value": "> 10 µM (inactive)"}, {"measurement": "GI50", "setting": "[24]", "value": "70.3 µM (inactive)"}, {"measurement": "GI50", "setting": "[25]", "value": "> 100 µM (inactive)"}, {"measurement": "GI50", "setting": "[26]", "value": "> 100 µM (inactive)"}, {"measurement": "GI50", "setting": "[27]", "value": "> 100 µM (inactive)"}, {"measurement": "GI50", "setting": "[28]", "value": "> 100 µM (inactive)"}, {"measurement": "GI50", "setting": "[29]", "value": "> 100 µM (inactive)"}, {"measurement": "GI50", "setting": "[30]", "value": "39.4 µM (inactive)"}, {"measurement": "GI50", "setting": "[31]", "value": "> 100 µM (inactive)"}, {"measurement": "GI50", "setting": "[32]", "value": "> 100 µM (inactive)"}, {"measurement": "GI50", "setting": "[33]", "value": "64 µM (inactive)"}, {"measurement": "GI50", "setting": "[34]", "value": "> 100 µM (inactive)"}, {"measurement": "GI50", "setting": "[35]", "value": "> 100 µM (inactive)"}, {"measurement": "GI50", "setting": "[36]", "value": "> 100 µM (inactive)"}, {"measurement": "GI50", "setting": "[37]", "value": "> 100 µM (inactive)"}, {"measurement": "GI50", "setting": "[38]", "value": "> 100 µM (inactive)"}, {"measurement": "GI50", "setting": "[39]", "value": "16.1 µM (inactive)"}, {"measurement": "GI50", "setting": "[40]", "value": "> 100 µM (inactive)"}, {"measurement": "GI50", "setting": "[41]", "value": "> 100 µM (inactive)"}, {"measurement": "GI50", "setting": "[42]", "value": "> 100 µM (inactive)"}, {"measurement": "GI50", "setting": "[43]", "value": "> 100 µM (inactive)"}, {"measurement": "GI50", "setting": "[44]", "value": "> 100 µM (inactive)"}, {"measurement": "GI50", "setting": "[45]", "value": "> 100 µM (inactive)"}, {"measurement": "GI50", "setting": "[46]", "value": "> 100 µM (inactive)"}, {"measurement": "GI50", "setting": "[47]", "value": "96.2 µM (inactive)"}]}, {"molecule": "Cc1cc(NC(=O)C2C3C=CC(O3)C2C(=O)O)no1", "note": "(centres undefined)", "values": [{"measurement": "GI50", "setting": "[1]", "value": "17.4 µM (inactive)"}, {"measurement": "GI50", "setting": "[2]", "value": "48 µM (inactive)"}, {"measurement": "GI50", "setting": "[3]", "value": "34.8 µM (inactive)"}, {"measurement": "GI50", "setting": "[4]", "value": "39.7 µM (inactive)"}, {"measurement": "GI50", "setting": "[6]", "value": "19.1 µM (inactive)"}, {"measurement": "GI50", "setting": "[7]", "value": "17.7 µM (inactive)"}, {"measurement": "GI50", "setting": "[8]", "value": "24 µM (inactive)"}, {"measurement": "GI50", "setting": "[9]", "value": "15.7 µM (inactive)"}, {"measurement": "GI50", "setting": "[48]", "value": "16.8 µM (inactive)"}, {"measurement": "GI50", "setting": "[49]", "value": "> 100 µM (inactive)"}, {"measurement": "GI50", "setting": "[10]", "value": "> 100 µM (inactive)"}, {"measurement": "GI50", "setting": "[11]", "value": "17 µM (inactive)"}, {"measurement": "GI50", "setting": "[12]", "value": 18.5, "unit": "µM"}, {"measurement": "GI50", "setting": "[13]", "value": "23.5 µM (inactive)"}, {"measurement": "GI50", "setting": "[14]", "value": "> 100 µM (inactive)"}, {"measurement": "GI50", "setting": "[15]", "value": "> 100 µM (inactive)"}, {"measurement": "GI50", "setting": "[16]", "value": "> 100 µM (inactive)"}, {"measurement": "GI50", "setting": "[17]", "value": "34.6 µM (inactive)"}, {"measurement": "GI50", "setting": "[50]", "value": "> 100 µM (inactive)"}, {"measurement": "GI50", "setting": "[18]", "value": "22.2 µM (inactive)"}, {"measurement": "GI50", "setting": "[19]", "value": "13.7 µM (inactive)"}, {"measurement": "GI50", "setting": "[21]", "value": "14.3 µM (inactive)"}, {"measurement": "GI50", "setting": "[22]", "value": "20.4 µM (inactive)"}, {"measurement": "GI50", "setting": "[23]", "value": "> 100 µM (inactive)"}, {"measurement": "GI50", "setting": "[24]", "value": "28.1 µM (inactive)"}, {"measurement": "GI50", "setting": "[25]", "value": "32.6 µM (inactive)"}, {"measurement": "GI50", "setting": "[26]", "value": "> 100 µM (inactive)"}, {"measurement": "GI50", "setting": "[51]", "value": "> 100 µM (inactive)"}, {"measurement": "GI50", "setting": "[27]", "value": "> 100 µM (inactive)"}, {"measurement": "GI50", "setting": "[28]", "value": "31.7 µM (inactive)"}, {"measurement": "GI50", "setting": "[52]", "value": "> 100 µM (inactive)"}, {"measurement": "GI50", "setting": "[53]", "value": "> 100 µM (inactive)"}, {"measurement": "GI50", "setting": "[54]", "value": "88.1 µM (inactive)"}, {"measurement": "GI50", "setting": "[29]", "value": "> 100 µM (inactive)"}, {"measurement": "GI50", "setting": "[30]", "value": "16.2 µM (inactive)"}, {"measurement": "GI50", "setting": "[55]", "value": "16.6 µM (inactive)"}, {"measurement": "GI50", "setting": "[56]", "value": "16.4 µM (inactive)"}, {"measurement": "GI50", "setting": "[31]", "value": "80.5 µM (inactive)"}, {"measurement": "GI50", "setting": "[32]", "value": "24.3 µM (inactive)"}, {"measurement": "GI50", "setting": "[33]", "value": "> 100 µM (inactive)"}, {"measurement": "GI50", "setting": "[34]", "value": "24 µM (inactive)"}, {"measurement": "GI50", "setting": "[35]", "value": "97.7 µM (inactive)"}, {"measurement": "GI50", "setting": "[36]", "value": "> 100 µM (inactive)"}, {"measurement": "GI50", "setting": "[57]", "value": "> 100 µM (inactive)"}, {"measurement": "GI50", "setting": "[58]", "value": "> 100 µM (inactive)"}, {"measurement": "GI50", "setting": "[37]", "value": "37.6 µM (inactive)"}, {"measurement": "GI50", "setting": "[38]", "value": "> 100 µM (inactive)"}, {"measurement": "GI50", "setting": "[39]", "value": "> 100 µM (inactive)"}, {"measurement": "GI50", "setting": "[40]", "value": "> 100 µM (inactive)"}, {"measurement": "GI50", "setting": "[41]", "value": "21.8 µM (inactive)"}, {"measurement": "GI50", "setting": "[42]", "value": "1.5 µM (inactive)"}, {"measurement": "GI50", "setting": "[43]", "value": "> 100 µM (inactive)"}, {"measurement": "GI50", "setting": "[44]", "value": "21.3 µM (inactive)"}, {"measurement": "GI50", "setting": "[45]", "value": "35 µM (inactive)"}, {"measurement": "GI50", "setting": "[59]", "value": "> 100 µM (inactive)"}, {"measurement": "GI50", "setting": "[46]", "value": "> 100 µM (inactive)"}, {"measurement": "GI50", "setting": "[47]", "value": "> 100 µM (inactive)"}]}]}
